{"source": "patent EP0202661B1", "about": "“Isolation of castanospermine and its use as an antidiabetic agent” (MERRELL DOW PHARMACEUTICALS INC., priority 1985, dated 1986)", "key": {"[1]": {"system": "Starch-Administrated Mice", "experiment": "Inhibitory action against increase of blood glucose in starch-administered mice", "assay_type": "in vivo, Male ICR-Swiss mice", "settings": "for Blood Glucose Concentration (mg%) at 45 min. After Starch: fasted mice, starch control (0 mg/kg) 126, blank 72", "experimental": "Inhibitory Action Against Increase of Blood Glucose in Starch-Administrated Mice\nMale ICR-Swiss mice with body weight of 25-35 g were fasted overnight. Starch was administered orally by gavage at a dose of 1 g/kg 15 minutes after the similar administration of castanospermine at doses of 1.9 to 60 mg/kg. Animals were sacrificed at 45 minutes after starch administration and blood glucose levels were measured by a method using glucose dehydrogenase. […]"}, "[2]": {"system": "Sucrose-Administered Mice", "experiment": "Inhibitory action against increase of blood glucose in sucrose-administered mice", "assay_type": "in vivo, Male ICR-swiss mice", "settings": "for Blood Glucose Concentration (mg%) at 30 Min. After Sucrose: fasted mice, sucrose control (0 mg/kg) 205, blank 107", "experimental": "Inhibitory Action Against Increase of Blood Glucose in Sucrose-Administered Mice\nMale ICR-swiss mice with body weight of 25-35 g were fasted overnight. Sucrose was administered orally by gavage at a dose of 2 g/kg 15 minutes after the similar administration of castanospermine at doses of 0.125 to 60 mg/kg. Animals were sacrificed at 30 minutes after sucrose administration and blood glucose levels were measured by a method using glucose dehydrogenase. […]"}, "[3]": {"system": "intestinal glycosidases (i.e., maltase and sucrase)", "settings": "rats, cited from earlier work"}}}
{"smiles": "O[C@H]1[C@H](O)[C@@H](O)CN2CC[C@H](O)[C@H]12", "note": "[Castanospermine, (1S,6S,7R,8R,8aR)-1,6,7,8-tetrahydroxyindolizidine]", "values": [{"measurement": "minimal effective dose", "setting": "[1]; Mus musculus, 0.75 h, oral gavage 15 min before starch 1 g/kg, blood glucose 45 min after starch, read-out: dose at which the increase in glucose in the blood could be significantly inhibited", "value": "≥ 3.8", "unit": "mg/kg"}, {"measurement": "Blood Glucose Concentration (mg%) at 45 min. After Starch", "setting": "[1]; castanospermine 1.9 mg/kg oral gavage 15 min before starch 1 g/kg", "value": 139, "unit": "mg%"}, {"measurement": "Blood Glucose Concentration (mg%) at 45 min. After Starch", "setting": "[1]; castanospermine 3.8 mg/kg oral gavage 15 min before starch 1 g/kg", "value": 83, "unit": "mg%"}, {"measurement": "Blood Glucose Concentration (mg%) at 45 min. After Starch", "setting": "[1]; castanospermine 7.5 mg/kg oral gavage 15 min before starch 1 g/kg", "value": 85, "unit": "mg%"}, {"measurement": "minimal effective dose", "setting": "[2]; Mus musculus, 0.5 h, oral gavage 15 min before sucrose 2 g/kg, blood glucose 30 min after sucrose, read-out: dose at which the increase in glucose in the blood could be significantly inhibited", "value": "≥ 0.125", "unit": "mg/kg"}, {"measurement": "Blood Glucose Concentration (mg%) at 30 Min. After Sucrose", "setting": "[2]; castanospermine 0.125 mg/kg oral gavage 15 min before sucrose 2 g/kg", "value": 159, "unit": "mg%"}, {"measurement": "Blood Glucose Concentration (mg%) at 30 Min. After Sucrose", "setting": "[2]; castanospermine 0.25 mg/kg oral gavage 15 min before sucrose 2 g/kg", "value": 167, "unit": "mg%"}, {"measurement": "Blood Glucose Concentration (mg%) at 30 Min. After Sucrose", "setting": "[2]; castanospermine 0.5 mg/kg oral gavage 15 min before sucrose 2 g/kg", "value": 153, "unit": "mg%"}, {"measurement": "Blood Glucose Concentration (mg%) at 30 Min. After Sucrose", "setting": "[2]; castanospermine 1.0 mg/kg oral gavage 15 min before sucrose 2 g/kg", "value": 146, "unit": "mg%"}, {"measurement": "Blood Glucose Concentration (mg%) at 30 Min. After Sucrose", "setting": "[2]; castanospermine 2.0 mg/kg oral gavage 15 min before sucrose 2 g/kg", "value": 116, "unit": "mg%"}, {"measurement": "inhibition of intestinal glycosidases (i.e., maltase and sucrase)", "setting": "[3]; administered by injection, Saul et al., Proc. Nat'l. Acad. Sci. USA, 82, 93 (1985)", "value": "inhibits intestinal glycosidases"}, {"measurement": "adverse observations at high doses", "setting": "[3]; high doses administered by injection, Saul et al. (1985)", "value": "diarrhea and high levels of intestinal bacterial flora were observed"}]}
